Measurements: patent publication US5219870A, “Omeprazole compositions designed for administration in rectum” (priority 1990, dated 1993)
“And” between values parts separate entries of the source, which are not always exact repeats. Equal values may be shown once. Read-outs that look alike come from different tables or passages of the source.

Key:
[1] = OMP Stability Based Upon Kinds of Stabilizer (colour change under severe condition); format: physicochemical; conditions: Reference 2 result in words
Text: As shown in the following table 2, PEG 4000 and Witepsol H-15 were used as bases for the manufacture of said composition; as a basic amino acid, arginine was used. The stability of said manufactured compositions was observed under a severe condition. As a diffusing medium, micro crystalline cellulose (brandname: Avicel) was used, while using sodium laurylsulfate as a releasing agent.

[2] = OMP Stability Based Upon Kinds of Base (colour change at room temperature); conditions: Reference 1 result in words
[3] = Animal Experiment: serum concentration and bioavailability of OMP in rabbits (I.V., oral, rectum); format: in vivo, albino rabbits; conditions: 10 mg/kg; for bioavailability: BA (bioavailability)
Experimental: Using the same method as in Reference 1, one composition using water-Soluble base was manufactured by the following formula; 20 mg OMP. 10 mg arginine and 970 mg PEG 4000, and another composition using lipid-soluble base was manufactured by the following formula; 20 mg OMP, 10 mg arginine and 970 mg Witepsol H-15.
Object: 36 male healthy albino rabbits weighing 1.5-2.3 kg.
Method: before fasting, feed and water were freely provided for eating and rabbits were confined to a wire-box while giving them feed in a constant condition for 4 days. After that, their fasting was made for 48 hours (during the fasting, the rabbits could freely drink 10% dextrose solution.)
For comparison test, 4 mg/ml I.V. solution was manufactured in advance by mixing 400 mg OMP, 20 ml polyethylene glycol 4000, and 80 ml buffer solution of 0.1 mol sodium bicarbonate. 5 ml solution per rabbit was administered to its ear's vein.
Then, through the esophagus of rabbit, Levine tube in diameter of 5 mm was inserted by 30 cm for administering oral OMP capsules wrapped in paraffin film. To reduce friction, vaseline was applied around the surface of the tube and through a syringe connected to the opposite end of the tube, 30 ml water was injected and, by the water pressure, paraffin film was broken to administer the capsule into intestine.
As the feces of the rabbit were not completely removable even in 48-hour fasting, Levine tube having a thickness of 5 mm was used to thrust feces up to the upper part of rectum by 15 cm for the separate of administration of said two kinds of compositions. Then, inserted into the anus, was a cotton wrapped in vinyl tape having a length of 2 cm, fixed it with a clip so as to prevent any leaking of drug solution.
By using xylene, the venous blood vessel of rabbit's ear was extended to collect some venous blood with a heparinized 3 cc syringe. Said syringe was already treated by soaking its wall with 1000 I.U. heparin. Then, 3 cc of said collected blood sample (10,000 rpm, 10 secs) was centrigued to obtain 1 ml plasma.
Add 1 ml of said plasma sample to […] intra-standard solution, 3 ml dichloromethane, 3 ml hexaine and 2 ml of 0.1 mol sodium bicarbonate buffer solution. Then, after agitation for 30 secs, centrifuge this mixture in 2000 rpm for 5 mins to separate into organic layer (upper layer) and plasma layer (lower layer).
Put the centrifuged test tube into ice-contained methanol to freeze the plasma layer. Thereafter, take 5 ml organic solvent from the said solution and, under reduced pressure, evaporate the organic solvent by nitrogen gas. Then add 300 μl mobile phase into the residue and after agitation for 30 secs again, centrifuge the mixture in 2000 rpm for 2 mins and conduct the assay by the HPLC analysis (injected 50 μl) through the comparison of height ratio with standard solution.
Cmax is a peak serum concentration;
AUC is an area under the curve describing serum concentration-time; and […]

[4] = cited from earlier work
[5] = rabbit, in vivo, po, serum concentration

N=C(N)NCCC[C@H](N)C(=O)O [arginine]
stabilizing effect [1]: better stabilizing effect than sodium phosphate
stability / contribution to stabilization [2]: stability was more increased

COc1ccc2[nH]c([S+]([O-])Cc3ncc(C)c(OC)c3C)nc2c1 (centres unmarked) [OMP, Omeprazole]
serum concentration ([3]; I.V., 20 mg OMP per 2 kg, 1 min, individual animals): 110.0 µg/mL and 100.0 µg/mL and 91.5 µg/mL and 99.0 µg/mL
serum concentration ([3]; I.V., 20 mg OMP per 2 kg, 5 min, individual animals): 47.8 µg/mL and 63.3 µg/mL and 58.7 µg/mL and 56.5 µg/mL
serum concentration ([3]; I.V., 20 mg OMP per 2 kg, 15 min, individual animals): 23.8 µg/mL and 36.8 µg/mL and 24.5 µg/mL
serum concentration ([3]; I.V., 20 mg OMP per 2 kg, 30 min, individual animals): 21.0 µg/mL and 16.7 µg/mL and 16.2 µg/mL
serum concentration ([3]; I.V., 20 mg OMP per 2 kg, 60 min, individual animals): 9.1 µg/mL and 11.7 µg/mL and 6.5 µg/mL
serum concentration ([3]; I.V., 20 mg OMP per 2 kg, 120 min, individual animals): 4.6 μg/ml and 4.2 μg/ml and 4.4 μg/ml (2×)
serum concentration ([3]; I.V., 20 mg OMP per 2 kg, 180 min, individual animals): 2.2 µg/mL and 2.1 µg/mL and 2.0 µg/mL
serum concentration ([3]; oral, 20 mg OMP per 2 kg, 1 hr, individual animals, 60 min): 0.300 µg/mL and 0.492 µg/mL and 0.270 µg/mL and 0.295 µg/mL
serum concentration ([3]; oral, 20 mg OMP per 2 kg, 4 hr, individual animals, 240 min): 0.375 µg/mL and 0.376 µg/mL
serum concentration ([3]; oral, 20 mg OMP per 2 kg, 5 hr, individual animals, 300 min): 0.432 µg/mL
serum concentration ([3]; oral, 20 mg OMP per 2 kg, 7 hr, individual animals, 420 min): 0.450 µg/mL and 0.409 µg/mL and 0.506 µg/mL and 0.400 µg/mL
serum concentration ([3]; oral, 20 mg OMP per 2 kg, 9 hr, individual animals, 540 min): 0.360 µg/mL and 0.373 µg/mL and 0.365 µg/mL
serum concentration ([3]; oral, 20 mg OMP per 2 kg, 11 hr, individual animals, 660 min): 0.038 µg/mL and 0.070 µg/mL and 0.171 µg/mL and 0.176 µg/mL and 0.053 µg/mL
Tmax ([3]; oral, 20 mg OMP per 2 kg, individual animals): 5 h
AUC ([3]; rabbit, in vivo, iv): 33200 ng·h/mL
AUC ([3]; rabbit, in vivo, iv, average): 35200 ng·h/mL
concentration at 0.25 h ([3]; rabbit, in vivo, iv, serum concentration): 16400 ng/mL
serum concentration ([3]; rabbit, in vivo, po, 4 h): 0.531 µg/mL
AUC ([3]; rabbit, in vivo, po): 6070 ng·h/mL
AUC ([3]; rabbit, in vivo, po, average): 5980 ng·h/mL
bioavailability ([3]; rabbit, in vivo, po): 17.2%
bioavailability ([3]; rabbit, in vivo, po, average): 17%
Cmax ([3]; rabbit, in vivo, po): 591 ng/mL
Cmax ([3]; rabbit, in vivo, po, average): 598 ng/mL
concentration at 4 h [3, 5]: 591 ng/mL
concentration at 5 h [3, 5]: 527 ng/mL
concentration at 9 h [3, 5]: 356 ng/mL
concentration at 1 min ([3]; rabbit, serum, iv, I.V., 20 mg OMP per 2 kg, 1 min, average, read-out: serum concentration, average): 101000 ng/mL
concentration at 1 min ([3]; rabbit, serum, iv, I.V., 20 mg OMP per 2 kg, 1 min, individual animals, read-out: serum concentration): 104000 ng/mL
concentration at 5 min ([3]; rabbit, serum, iv, I.V., 20 mg OMP per 2 kg, 5 min, average, read-out: serum concentration, average): 54400 ng/mL
concentration at 5 min ([3]; rabbit, serum, iv, I.V., 20 mg OMP per 2 kg, 5 min, individual animals, read-out: serum concentration): 45900 ng/mL
concentration at 0.25 h ([3]; rabbit, serum, iv, I.V., 20 mg OMP per 2 kg, 15 min, average, read-out: serum concentration, average): 25600 ng/mL
concentration at 0.25 h ([3]; rabbit, serum, iv, I.V., 20 mg OMP per 2 kg, 15 min, individual animals, read-out: serum concentration): 26400 ng/mL
concentration at 0.5 h ([3]; rabbit, serum, iv, I.V., 20 mg OMP per 2 kg, 30 min, average, read-out: serum concentration, average): 16700 ng/mL
concentration at 0.5 h ([3]; rabbit, serum, iv, I.V., 20 mg OMP per 2 kg, 30 min, individual animals, read-out: serum concentration): 12800 ng/mL
concentration at 1 h ([3]; rabbit, serum, iv, I.V., 20 mg OMP per 2 kg, 60 min, average, read-out: serum concentration, average): 8800 ng/mL
concentration at 1 h ([3]; rabbit, serum, iv, I.V., 20 mg OMP per 2 kg, 60 min, individual animals, read-out: serum concentration): 7800 ng/mL
concentration at 2 h ([3]; rabbit, serum, iv, I.V., 20 mg OMP per 2 kg, 120 min, average, read-out: serum concentration, average): 4700 ng/mL
concentration at 2 h ([3]; rabbit, serum, iv, I.V., 20 mg OMP per 2 kg, 120 min, individual animals, read-out: serum concentration): 5800 ng/mL
concentration at 3 h ([3]; rabbit, serum, iv, I.V., 20 mg OMP per 2 kg, 180 min, average, read-out: serum concentration, average): 2100 ng/mL
concentration at 3 h ([3]; rabbit, serum, iv, I.V., 20 mg OMP per 2 kg, 180 min, individual animals, read-out: serum concentration): 2000 ng/mL
concentration at 11 h ([3]; rabbit, serum, po, 20 mg OMP per 2 kg, 11 hr, average): 102 ng/mL
concentration at 1 h ([3]; rabbit, serum, po, oral, 20 mg OMP per 2 kg, 1 hr, average, read-out: serum concentration, average): 330 ng/mL
concentration at 1 h ([3]; rabbit, serum, po, oral, 20 mg OMP per 2 kg, 1 hr, individual animals, read-out: serum concentration): 293 ng/mL
concentration at 2 h ([3]; rabbit, serum, po, oral, 20 mg OMP per 2 kg, 2 hr, average, read-out: serum concentration, average): 455 ng/mL
concentration at 2 h ([3]; rabbit, serum, po, oral, 20 mg OMP per 2 kg, 2 hr, individual animals, read-out: serum concentration): 369 ng/mL
concentration at 3 h ([3]; rabbit, serum, po, oral, 20 mg OMP per 2 kg, 3 hr, average, read-out: serum concentration, average): 413 ng/mL
concentration at 3 h ([3]; rabbit, serum, po, oral, 20 mg OMP per 2 kg, 3 hr, individual animals, read-out: serum concentration): 425 ng/mL
concentration at 4 h ([3]; rabbit, serum, po, oral, 20 mg OMP per 2 kg, 4 hr, average, read-out: serum concentration, average): 477 ng/mL
concentration at 4 h ([3]; rabbit, serum, po, oral, 20 mg OMP per 2 kg, 4 hr, individual animals, read-out: serum concentration): 410 ng/mL
concentration at 5 h ([3]; rabbit, serum, po, oral, 20 mg OMP per 2 kg, 5 hr, average, read-out: serum concentration, average): 550 ng/mL
concentration at 5 h ([3]; rabbit, serum, po, oral, 20 mg OMP per 2 kg, 5 hr, individual animals, read-out: serum concentration): 447 ng/mL
concentration at 7 h ([3]; rabbit, serum, po, oral, 20 mg OMP per 2 kg, 7 hr, average, read-out: serum concentration, average): 457 ng/mL
concentration at 7 h ([3]; rabbit, serum, po, oral, 20 mg OMP per 2 kg, 7 hr, individual animals, read-out: serum concentration): 521 ng/mL
concentration at 9 h ([3]; rabbit, serum, po, oral, 20 mg OMP per 2 kg, 9 hr, average, read-out: serum concentration, average): 357 ng/mL
concentration at 9 h ([3]; rabbit, serum, po, oral, 20 mg OMP per 2 kg, 9 hr, individual animals, read-out: serum concentration): 341 ng/mL
Tmax ([3]; rabbit, serum, po, oral, 20 mg OMP per 2 kg, individual animals, read-out: Tmax): 4 h
half life ([4]; neutral pH): about 14 hrs
decomposition ([4]; pH less than 4.0): rapid decomposition
stability ([4]; pH more than 7.0): very stable
